Assay results taken from the NIST ThermoML archive (doi:10.1016/j.jct.2011.12.030).
± gives the expanded uncertainty stated by the source.

Conditions: Liquid, Vibrating tube method

CCOS(=O)(=O)[O-].CCn1cc[n+](C)c1 [1-ethyl-3-methylimidazolium ethyl sulfate]
mass density [kg/m3]
Conditions | 100 kPa | 1000 kPa | 10000 kPa | 20000 kPa | 40000 kPa | 60000 kPa | 80000 kPa | 100000 kPa | 120000 kPa
278.15 K | 1251.9 ± 0.9 | 1252.2 ± 0.9 | 1255.7 ± 1 | 1259.5 ± 1.1 | 1266.8 ± 1.4 | 1273.7 ± 1.6 | 1280.2 ± 1.8 | 1286.5 ± 2.1 | 1292.2 ± 2.4
298.15 K | 1237 ± 0.9 | 1237.3 ± 0.9 | 1241 ± 1 | 1245 ± 1.1 | 1252.6 ± 1.3 | 1259.7 ± 1.5 | 1266.5 ± 1.8 | 1273.1 ± 2 | 1279.3 ± 2.3
313.15 K | 1226.6 ± 0.9 | 1227 ± 0.9 | 1230.8 ± 1 | 1235 ± 1.1 | 1242.8 ± 1.3 | 1250.3 ± 1.5 | 1257.3 ± 1.7 | 1264.1 ± 2 | 1270.5 ± 2.2
333.15 K | 1213 ± 0.9 | 1213.4 ± 0.9 | 1217.4 ± 1 | 1221.7 ± 1.1 | 1230 ± 1.3 | 1237.8 ± 1.5 | 1245.2 ± 1.7 | 1252.3 ± 1.9 | 1259.1 ± 2.1
348.15 K | 1203.1 ± 0.9 | 1203.6 ± 0.9 | 1207.7 ± 0.9 | 1212.3 ± 1 | 1220.9 ± 1.2 | 1228.9 ± 1.4 | 1236.5 ± 1.6 | 1243.8 ± 1.9 | 1250.8 ± 2.1
373.15 K | 1187.3 ± 0.8 | 1187.3 ± 0.8 | 1191.8 ± 0.9 | 1196.6 ± 1 | 1205.8 ± 1.2 | 1214.2 ± 1.4 | 1222.2 ± 1.6 | 1229.7 ± 1.8 | 1237 ± 2
398.15 K | 1171.4 ± 0.8 | 1171 ± 0.8 | 1175.9 ± 0.9 | 1181 ± 1 | 1190.7 ± 1.1 | 1199.7 ± 1.3 | 1208.1 ± 1.5 | 1216 ± 1.7 | 1223.4 ± 1.9

COCC[N+]1(C)CCCC1.O=S(=O)([N-]S(=O)(=O)C(F)(F)F)C(F)(F)F
mass density [kg/m3]
Conditions | 100 kPa | 1000 kPa | 10000 kPa | 20000 kPa | 40000 kPa | 60000 kPa | 80000 kPa | 100000 kPa | 120000 kPa
278.15 K | 1474.2 ± 2 | 1474.9 ± 2 | 1480.8 ± 2.2 | 1487 ± 2.4 | 1498.6 ± 2.8 | 1509.5 ± 3.3 | 1519.8 ± 3.7 | 1529.3 ± 4.2 | 1538.3 ± 4.7
298.15 K | 1453.5 ± 1.9 | 1454.1 ± 1.9 | 1460.2 ± 2.1 | 1466.9 ± 2.3 | 1479.2 ± 2.7 | 1490.6 ± 3.2 | 1501.4 ± 3.6 | 1511.4 ± 4.1 | 1520.9 ± 4.5
313.15 K | 1439.1 ± 1.9 | 1440.1 ± 1.9 | 1446.5 ± 2.1 | 1453.5 ± 2.3 | 1466.4 ± 2.7 | 1478.4 ± 3.1 | 1489.4 ± 3.5 | 1499.8 ± 4 | 1509.6 ± 4.4
333.15 K | 1420.8 ± 1.8 | 1421.6 ± 1.8 | 1428.5 ± 2 | 1435.9 ± 2.2 | 1449.5 ± 2.6 | 1462.2 ± 3 | 1473.7 ± 3.4 | 1484.6 ± 3.9 | 1494.8 ± 4.3
348.15 K | 1407.3 ± 1.8 | 1408 ± 1.8 | 1415.4 ± 2 | 1423.2 ± 2.2 | 1437.5 ± 2.5 | 1450.5 ± 3 | 1462.5 ± 3.4 | 1473.6 ± 3.8 | 1484.2 ± 4.2
373.15 K | 1385.3 ± 1.7 | 1385.7 ± 1.7 | 1393.4 ± 1.9 | 1401.8 ± 2.1 | 1417.2 ± 2.5 | 1430.9 ± 2.9 | 1443.5 ± 3.3 | 1455.2 ± 3.7 | 1466.3 ± 4.1
398.15 K | 1363.2 ± 1.7 | 1363.3 ± 1.7 | 1372 ± 1.8 | 1381 ± 2 | 1397.4 ± 2.4 | 1412 ± 2.8 | 1425.4 ± 3.2 | 1437.9 ± 3.6 | 1449.6 ± 4
